This passage reports Ki results from ChEMBL document CHEMBL3639186, “Modulators of serotonin receptor” (2013).

Each structure is given as a SMILES string. Some results are limits rather than exact numbers.

A word on the Ki: it is a dissociation constant, usually derived from enzyme kinetics or from competition with a known ligand.

This experiment addresses 5-hydroxytryptamine receptor 7 (Rattus norvegicus, UniProt P32305). Briefly: Biological Assay: Compound affinity for the rat 5-HT7 receptor subtype was evaluated by competitive radioligand binding assay using 5-carboxamido[H3]typtamine ([3H]5-CT)(Amersham Biosciences) detection.

5-hydroxytryptamine receptor 7, sequence (P32305 whole entry): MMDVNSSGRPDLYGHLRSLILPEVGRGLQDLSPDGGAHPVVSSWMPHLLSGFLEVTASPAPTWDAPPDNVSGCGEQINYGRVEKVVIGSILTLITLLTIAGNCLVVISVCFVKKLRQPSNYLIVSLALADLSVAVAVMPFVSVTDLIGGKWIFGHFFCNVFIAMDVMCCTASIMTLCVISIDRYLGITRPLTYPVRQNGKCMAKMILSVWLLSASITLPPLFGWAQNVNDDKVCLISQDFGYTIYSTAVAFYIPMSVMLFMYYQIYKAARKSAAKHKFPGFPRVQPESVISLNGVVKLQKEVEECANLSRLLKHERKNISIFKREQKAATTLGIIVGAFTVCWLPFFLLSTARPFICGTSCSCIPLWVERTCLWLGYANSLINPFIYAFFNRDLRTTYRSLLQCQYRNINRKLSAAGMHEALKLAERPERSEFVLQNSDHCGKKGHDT

On to `Cc1cc(C#N)c(OC2CNC2)cc1-c1ccccc1`, for which the Ki was not below 10 µM.
